According to US20170334899A1, “AMINO-SUBSTITUTED ISOTHIAZOLES” (Bayer Pharma Aktiengesellschaft, priority 2014, published 2017):

Target: T1, human kinase Mps-1 (Homo sapiens, UniProt P33981)
T1 construct: N-terminally GST-tagged human full length recombinant Mps-1 kinase; GST (N); purchased Invitrogen, Karslruhe, Germany PV4071
T1 sequence (P33981 1-857): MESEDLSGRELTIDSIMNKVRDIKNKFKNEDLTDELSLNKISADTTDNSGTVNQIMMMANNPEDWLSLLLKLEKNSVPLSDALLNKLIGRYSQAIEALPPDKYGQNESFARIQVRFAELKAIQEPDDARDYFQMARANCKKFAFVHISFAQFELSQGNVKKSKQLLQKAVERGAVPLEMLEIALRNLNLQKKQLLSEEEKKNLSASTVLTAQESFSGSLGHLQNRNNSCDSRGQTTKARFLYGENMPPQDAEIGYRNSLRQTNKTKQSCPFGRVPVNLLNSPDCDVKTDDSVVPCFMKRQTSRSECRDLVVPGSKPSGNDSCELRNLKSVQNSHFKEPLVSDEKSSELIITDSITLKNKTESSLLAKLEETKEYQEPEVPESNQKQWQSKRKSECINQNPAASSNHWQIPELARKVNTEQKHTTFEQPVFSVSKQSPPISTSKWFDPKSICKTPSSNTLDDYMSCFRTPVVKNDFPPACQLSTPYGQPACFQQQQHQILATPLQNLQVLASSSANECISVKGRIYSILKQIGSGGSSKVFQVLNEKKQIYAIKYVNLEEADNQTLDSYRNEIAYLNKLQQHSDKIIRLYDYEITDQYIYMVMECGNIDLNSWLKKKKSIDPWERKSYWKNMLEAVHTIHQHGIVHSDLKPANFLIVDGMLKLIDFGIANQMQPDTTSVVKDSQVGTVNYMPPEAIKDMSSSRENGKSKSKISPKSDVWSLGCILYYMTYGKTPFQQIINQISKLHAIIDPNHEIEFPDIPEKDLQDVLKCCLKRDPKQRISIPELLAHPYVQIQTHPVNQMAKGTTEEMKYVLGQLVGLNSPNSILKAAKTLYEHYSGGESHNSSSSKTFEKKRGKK
Experiment: Mps-1 kinase assay (TR-FRET)
Assay type: biochemical
Details: Mps-1 TR-FRET kinase assay; avg; read-out: Mps1 avg (IC50 [mol/l])
Method: The human kinase Mps-1 phosphorylates a biotinylated substrate peptide. Detection of the phosphorylated product is achieved by time-resolved fluorescence resonance energy transfer (TR-FRET) from Europium-labelled anti-phospho-Serine/Threonine antibody as donor to streptavidin labelled with cross-linked allophycocyanin (SA-XLent) as acceptor. Compounds are tested for their inhibition of the kinase activity.
N-terminally GST-tagged human full length recombinant Mps-1 kinase (purchased from Invitrogen, Karslruhe, Germany, cat. no PV4071) was used. As substrate for the kinase reaction a biotinylated peptide of the amino-acid sequence biotin-Ahx-PWDPDDADITEILG (C-terminus in amide form, purchased from Biosyntan GmbH, Berlin) was used.
For the assay 50 nl of a 100-fold concentrated solution of the test compound in DMSO was pipetted into a black low volume 384we11 microtiter plate (Greiner Bio-One, Frickenhausen, Germany), 2 μl of a solution of Mps-1 in assay buffer [0.1 mM sodium-ortho-vanadate, 10 mM MgCl2,2 mM DTT, 25 mM Hepes pH 7.7, 0.05% BSA (w/v), 0.001% Pluronic F-127] were added and the mixture was incubated for 15 min at 22° C. to allow pre-binding of the test compounds to Mps-1 before the start of the kinase reaction. Then the kinase reaction was started by the addition of 3 μl of a solution of 16.7 μM adenosine-tri-phosphate (ATP, 16.7 μM=>final conc. in the 5 μl assay volume is 10 μM) and peptide substrate (1.67 μM=>final conc. in the 5 μl assay volume is 1 μM) in assay buffer and the resulting mixture was incubated for a reaction time of 60 min at 22° C. The concentration of Mps-1 in the assay was adjusted to the activity of the enzyme lot and was chosen appropriate to have the assay in the linear range, typical enzyme concentrations were in the range of about 0.5 nM (final conc. in the 5 μl assay volume). The reaction was stopped by the addition of 5 μl of a solution of TR-FRET detection reagents (100 mM Hepes pH 7.4, 0.1% BSA, 40 mM EDTA, 140 nM Streptavidin-XLent [#61GSTXLB, Fa. Cis Biointernational, Marcoule, France], 1.5 nM anti-phospho(Ser/Thr)-Europium-antibody [#AD0180, PerkinElmer LAS, Rodgau-Jugesheinn, Germany]. Instead of the 1.5 nM anti-phospho(Ser/Thr)-Europium-antibody a mixture of 2 nM unlabeled anti-phospho ser/thr-pro antibody MPM-2 [Millipore cat. #05-368] and 1 nM LANCE EU-W1024 labeled anti-mouse IgG antibody [Perkin-Elmer, product no. AD0077] can be used).
The resulting mixture was incubated 1 h at 22° C. to allow the binding of the phosphorylated peptide to the anti-phospho(Ser/Thr)-Europium-antibody. Subsequently the amount of phosphorylated substrate was evaluated by measurement of the resonance energy transfer from the Europium-labelled anti-phospho(Ser/Thr) antibody to the Streptavidin-XLent. Therefore, the fluorescence emissions at 620 nm and 665 nm after excitation at 350 nm was measured in a Viewlux TR-FRET reader (PerkinElmer LAS, Rodgau-Jugesheinn, Germany). The “blank-corrected normalized ratio” (a Viewlux specific readout, similar to the traditional ratio of the emissions at 665 nm and at 622 nm, in which blank and Eu-donor crosstalk are subtracted from the 665 nm signal before the ratio is calculated) was taken as the measure for the amount of phosphorylated substrate. The data were normalised (enzyme reaction without inhibitor=0% inhibition, all other assay components but no enzyme=100% inhibition).

Row | Compound | IC50 [µM]
1 | Cc1nsc(Nc2cnc(C(F)(F)F)cn2)c1C(=O)Nc1ccc(O[C@@H]2CCN(CCC(F)(F)F)C[C@@H]2F)nc1 [Example 139, N-(6-{[(3S,4R)-3-fluoro-1-(3,3,3-trifluoropropyl)piperidin-4-yl]oxy}pyridin-3-yl)-3-methyl-5-{[5-(trifluoromethyl)pyrazin-2-yl]amino}-1,2-thiazole-4-carboxamide] | > 20
2 | CCCN1CC[C@@H](Oc2ccc(NC(=O)c3c(C)nsc3Nc3cnc(C(F)(F)F)cn3)cn2)[C@@H](F)C1 [Example 140, N-(6-{[(3S,4R)-3-fluoro-1-propylpiperidin-4-yl]oxy}pyridin-3-yl)-3-methyl-5-{[5-(trifluoromethyl)pyrazin-2-yl]amino}-1,2-thiazole-4-carboxamide] | > 20
3 | Cc1nsc(Nc2cnc(C(F)(F)F)cn2)c1C(=O)Nc1ccc(O[C@H]2CCN(CC(F)F)C[C@H]2F)nc1 [Example 144, N-(6-{[(3R,4S)-1-(2,2-difluoroethyl)-3-fluoropiperidin-4-yl]oxy}pyridin-3-yl)-3-methyl-5-{[5-(trifluoromethyl)pyrazin-2-yl]amino}-1,2-thiazole-4-carboxamide] | > 20
4 | Cc1nsc(Nc2cnc(C(F)(F)F)cn2)c1C(=O)Nc1ccc(O[C@H]2CCN(CC(F)(F)F)C[C@H]2F)nc1 [Example 145, N-(6-{[(3R,4S)-3-fluoro-1-(2,2,2-trifluoroethyl)piperidin-4-yl]oxy}pyridin-3-yl)-3-methyl-5-{[5-(trifluoromethyl)pyrazin-2-yl]amino}-1,2-thiazole-4-carboxamide] | > 20
5 | Cc1nsc(Nc2cnc(C(F)(F)F)cn2)c1C(=O)Nc1ccc(O[C@H]2CCN(CCC(F)(F)F)C[C@H]2F)nc1 [Example 146, N-(6-{[(3R,4S)-3-fluoro-1-(3,3,3-trifluoropropyl)piperidin-4-yl]oxy}pyridin-3-yl)-3-methyl-5-{[5-(trifluoromethyl)pyrazin-2-yl]amino}-1,2-thiazole-4-carboxamide] | > 20
6 | CCCN1CC[C@H](Oc2ccc(NC(=O)c3c(C)nsc3Nc3cnc(C(F)(F)F)cn3)cn2)[C@H](F)C1 [Example 147, N-(6-{[(3R,4S)-3-fluoro-1-propylpiperidin-4-yl]oxy}pyridin-3-yl)-3-methyl-5-{[5-(trifluoromethyl)pyrazin-2-yl]amino}-1,2-thiazole-4-carboxamide] | > 20
7 | Cc1nsc(Nc2cnc3cc(F)ccc3n2)c1C(=O)Nc1ccc(S(N)(=O)=O)cc1 [Example 149, 5-[(6-fluoroquinoxalin-2-yl)amino]-3-methyl-N-(4-sulfamoylphenyl)-1,2-thiazole-4-carboxamide] | > 20
8 | Cc1nsc(Nc2ccc(C#N)cn2)c1C(=O)Nc1cccc(S(C)(=O)=O)c1 [Example 150, 5-[(5-cyanopyridin-2-yl)amino]-3-methyl-N-[3-(methylsulfonyl)phenyl]-1,2-thiazole-4-carboxamide] | > 20
9 | Cc1nsc(Nc2cnc(C(F)(F)F)cn2)c1C(=O)Nc1ccc(F)c(C(N)=O)c1 [Example 151, N-(3-carbamoyl-4-fluorophenyl)-3-methyl-5-{[5-(trifluoromethyl)pyrazin-2-yl]amino}-1,2-thiazole-4-carboxamide] | > 20
10 | CC(=O)Nc1cc(NC(=O)c2c(C)nsc2Nc2ccc(C#N)cn2)ccc1F [Example 152, N-(3-acetamido-4-fluorophenyl)-5-[(5-cyanopyridin-2-yl)amino]-3-methyl-1,2-thiazole-4-carboxamide] | > 20
11 | Cc1nsc(Nc2cnc(C(F)(F)F)cn2)c1C(=O)Nc1ccc(C(=O)NCCN2CCCC(F)(F)C2)cc1 [Example 153, N-(4-{[2-(3,3-difluoropiperidin-1-yl)ethyl]carbamoyl}phenyl)-3-methyl-5-{[5-(trifluoromethyl)pyrazin-2-yl]amino}-1,2-thiazole-4-carboxamide] | > 20
12 | Cc1nsc(Nc2cnc(C(F)(F)F)cn2)c1C(=O)Nc1ccc(C(=O)N2CCN(CC(F)F)CC2)cc1 [Example 154, N-(4-{[4-(2,2-difluoroethyl)piperazin-1-yl]carbonyl}phenyl)-3-methyl-5-{[5-(trifluoromethyl)pyrazin-2-yl]amino}-1,2-thiazole-4-carboxamide] | > 20
13 | Cc1nsc(Nc2cncc(C(F)(F)F)n2)c1C(=O)Nc1ccc(C(=O)NCCN2CCCC(F)C2)cc1 (stereo not shown) [Example 155, N-(4-{[2-(3-fluoropiperidin-1-yl)ethyl]carbamoyl}phenyl)-3-methyl-5-{[6-(trifluoromethyl)pyrazin-2-yl]amino}-1,2-thiazole-4-carboxamide] | 18
14 | Cc1nsc(Nc2cnc3ccccc3n2)c1C(=O)Nc1ccc(C(=O)NCCN2CCCC(F)(F)C2)cc1 [Example 156, N-(4-{[2-(3,3-difluoropiperidin-1-yl)ethyl]carbamoyl}phenyl)-3-methyl-5-(quinoxalin-2-ylamino)-1,2-thiazole-4-carboxamide] | > 20
15 | Cc1nsc(Nc2cnc3ccccc3n2)c1C(=O)Nc1ccc(C(=O)N2CCN(CC(F)F)CC2)cc1 [Example 157, N-(4-{[4-(2,2-difluoroethyl)piperazin-1-yl]carbonyl}phenyl)-3-methyl-5-(quinoxalin-2-ylamino)-1,2-thiazole-4-carboxamide] | > 20
16 | Cc1nsc(Nc2cnc3ccccc3n2)c1C(=O)Nc1ccc(C(=O)NC2CN(C(=O)OC(C)(C)C)CC(F)(F)C2)cc1 (stereo not shown) [Example 158, tert-butyl 3,3-difluoro-5-{[4-({[3-methyl-5-(quinoxalin-2-ylamino)-1,2-thiazol-4-yl]carbonyl}amino)benzoyl]amino} piperidine-1-carboxylate] | > 20
17 | Cc1nsc(Nc2cnc3ccccc3n2)c1C(=O)Nc1ccc(C(=O)N2CCCN(CC(F)(F)F)CC2)cc1 [Example 159] | > 20
18 | Cc1nsc(Nc2cnc(C(F)(F)F)cn2)c1C(=O)Nc1ccc(OC2CCN(C(C)C)CC2)nc1 [Example 160, N-{6-[(1-isopropylpiperidin-4-yl)oxy]pyridin-3-yl}-3-methyl-5-{[5-(trifluoromethyl)pyrazin-2-yl]amino}-1,2-thiazole-4-carboxamide] | > 20
19 | Cc1nsc(Nc2cnc(C(F)(F)F)cn2)c1C(=O)Nc1ccc(OC2CCN(CCF)CC2)c(F)c1 [Example 162, N-(3-fluoro-4-{[1-(2-fluoroethyl)piperidin-4-yl]oxy}phenyl)-3-methyl-5-{[5-(trifluoromethyl)pyrazin-2-yl]amino}-1,2-thiazole-4-carboxamide] | > 20
